Test results as given in the NIST ThermoML archive (doi:10.1016/j.jct.2004.12.004).

Assay: mn = molality of the nth substance listed, in mol/kg
Details: 350 kPa, Liquid, Extra sensitive DSC

OC[C@H]1O[C@@](CO)(O[C@H]2O[C@H](CO)[C@@H](O)[C@H](O)[C@H]2O)[C@@H](O)[C@@H]1O [D-sucrose] + O
apparent molar heat capacity [J/K/mol]
Details | 298.15 K | 303.15 K | 308.15 K | 313.15 K | 318.15 K
m1 = 0.01461 | – | 660.7 | 679 | 695.3 | 709.1
m1 = 0.03048 | – | 662.1 | 679.1 | 695.1 | 709.4
m1 = 0.06172 | – | 663 | 680.3 | 696.3 | 710.4
m1 = 0.1302 | – | 663.2 | 680.3 | 696.2 | 710.3
m1 = 0.2486 | – | 663.8 | 680.6 | 696.3 | 710.3
m1 = 0.4969 | – | 664.5 | 680.9 | 696.3 | 710.1
m1 = 0.746 | 646.9 | 665.1 | 681.1 | 696.2 | 709.8
m1 = 0.9972 | 649.1 | 666.8 | 682.4 | 697.3 | 710.5
m1 = 1.489 | 649.6 | 666.5 | 681.8 | 696.3 | 709.1
m1 = 1.99 | 651.6 | 667.8 | 682.4 | 696.4 | 709.1
m1 = 2.99 | 655.2 | 670.4 | 683.9 | 697.1 | 709.1
m1 = 3.995 | 659.4 | 673.5 | 686.3 | 698.8 | 710.2
